Reference: patent US4595757A, “N-alkylated benzo- and hetero-fused antisecretory agents” (American Home Products Corporation, priority 1984, dated 1986)

Key:
[1] = target: T1, (H^+ +K^+)ATPase (Rattus norvegicus, UniProt P09626); assay: Inhibition of dibutyryl cyclic AMP-stimulated 14C-aminopyrine uptake by rat gastric mucosal cells ((H^+ +K^+)ATPase inhibition); assay type: cell-based; conditions: 37° C., 2 hours
T1 construct: Rat gastric mucosal tissue is collected from 170-220 g male Sprague-Dawley rats; from tissue; host or cells: Dispersed gastric mucosal cells from male Sprague-Dawley rats (Pronase E digestion)
T1 sequence (P09626 whole entry): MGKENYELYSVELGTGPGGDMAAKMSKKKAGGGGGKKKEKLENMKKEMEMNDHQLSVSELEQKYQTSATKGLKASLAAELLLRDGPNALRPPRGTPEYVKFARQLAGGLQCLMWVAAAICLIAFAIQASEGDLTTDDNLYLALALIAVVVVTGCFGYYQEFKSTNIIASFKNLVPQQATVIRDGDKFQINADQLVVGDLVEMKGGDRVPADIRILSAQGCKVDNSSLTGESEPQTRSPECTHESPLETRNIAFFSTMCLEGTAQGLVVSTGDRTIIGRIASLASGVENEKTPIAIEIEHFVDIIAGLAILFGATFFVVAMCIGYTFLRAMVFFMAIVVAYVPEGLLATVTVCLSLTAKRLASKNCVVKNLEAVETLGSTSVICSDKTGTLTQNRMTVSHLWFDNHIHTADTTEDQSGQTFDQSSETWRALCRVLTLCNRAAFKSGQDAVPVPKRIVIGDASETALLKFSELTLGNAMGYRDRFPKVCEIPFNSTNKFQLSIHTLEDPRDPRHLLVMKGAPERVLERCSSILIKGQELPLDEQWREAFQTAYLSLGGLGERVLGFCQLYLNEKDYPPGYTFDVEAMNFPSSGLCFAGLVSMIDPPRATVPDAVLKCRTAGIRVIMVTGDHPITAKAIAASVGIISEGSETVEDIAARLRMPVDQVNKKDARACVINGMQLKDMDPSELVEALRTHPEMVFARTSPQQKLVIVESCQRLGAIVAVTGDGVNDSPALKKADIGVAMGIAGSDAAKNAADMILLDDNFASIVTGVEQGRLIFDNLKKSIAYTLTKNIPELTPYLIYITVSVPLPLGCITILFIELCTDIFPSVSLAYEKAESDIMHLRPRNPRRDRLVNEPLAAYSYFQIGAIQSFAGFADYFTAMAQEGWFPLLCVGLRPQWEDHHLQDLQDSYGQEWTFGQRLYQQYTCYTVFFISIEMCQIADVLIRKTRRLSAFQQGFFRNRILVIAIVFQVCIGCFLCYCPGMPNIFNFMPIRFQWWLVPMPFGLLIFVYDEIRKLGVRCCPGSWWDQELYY
T1 sequence (P18598 whole entry partner): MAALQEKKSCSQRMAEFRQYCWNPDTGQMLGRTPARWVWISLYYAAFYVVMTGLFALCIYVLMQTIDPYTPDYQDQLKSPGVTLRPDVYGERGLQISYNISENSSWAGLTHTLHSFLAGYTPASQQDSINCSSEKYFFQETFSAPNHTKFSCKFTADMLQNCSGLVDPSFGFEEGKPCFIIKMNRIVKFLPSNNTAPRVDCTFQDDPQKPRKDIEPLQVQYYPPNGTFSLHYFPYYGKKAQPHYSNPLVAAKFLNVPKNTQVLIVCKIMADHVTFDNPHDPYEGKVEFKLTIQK
From the text: The procedures for these tests and the results for some of the compounds of the invention are presented at the end of the following examples, which will serve to illustrate the present invention. The determination of the rate of gastric acid secretion cannot be measured quantitatively with isolated gastric glands or cells. However, the acid secretory response can be monitored semiquantitatively by measuring the uptake of a radiolabelled weak base, ^14 C-aminopyrine (^14 C-AP), which accumulates in the glands in proportion to the pH differences between the intraglandular acid compartments and the surrounding medium. The following assay uses this effect in order to measure the ability of the compounds of the invention to inhibit gastric acid secretion by blocking (H^+ +K^+)ATPase. Rat gastric mucosal tissue is collected from 170-220 g male Sprague-Dawley rats. […] The Pronase E is poured off and the tissues are rinsed in a small amount of DNAse solution (2.5 mg DNAse in 10 ml of Hanks Balanced Salt Solution (HBE) with addition of 1 mg/ml of BSA and 0.76 mg/ml of EGTA). 4 ml of stock DNAse solution is added to 76 ml of HBE and aerated before use. The pH of the solution is adjusted to 7.5 with 2M Tris Buffer. The comminuted tissue is passed through nylon mesh into DNAse solution and incubated at ambient temperature for 20 minutes. The cells obtained thereby are dispersed, filtered through nylon mesh and centrifuged at 1000 RPM's for 7 minutes. […] Immediately before use, 6.1 mg of L-cysteine is dissolved in 5 ml RPMI-BSA. The final incubation medium is (by volume) 80% RPMI-BSA, 10% glucose/PA/IMX solution and 10% L-cysteine solution. For the actual assay procedure, microfuge tubes are prepared as follows: Into each tube are placed (a) 100 μl of the stimulant dibutyryl cyclic AMP made up in H2 O or an equal volume of distilled H2 O; (b) 100 μl of drug made up in RPMSI-BSA or an equal volume of RPMI-BSA; (c) 750 μl of the cell suspension; and (d) 50 μl of ^14 C-aminopyrine solution. The tubes are shaken in a 37° C. water bath in a O2 /CO2 (95/5%) atmosphere at about 110 cycles/minute, and incubated for 2 hours. The tubes are then microfuged for 30 seconds, the pellet surface rinsed with 500 μl RPMI-BSA and the cells dispersed in 500 μl distilled H2 O. The cells are then transferred to mini-scintillation vials with 5.75 ml of Hydrofluor, vortexed and counted in a Packard liquid scintillation counter. The inhibition of ^14 C-AP uptake is quantified from the scintillation count results and the IC50 for test compounds is calculated. The results for some of the compounds of the invention and for the two known (H^+ +K^+)ATPase inhibitors, omeprazole and timoprazole, are given in Table I.

[2] = system: cold restraint/stress ulcerogenesis; assay: Cold restraint/stress ulcerogenesis assay (cytoprotective effect); assay type: in vivo; conditions: Rattus norvegicus; male rats, oral, cold (4±1° C.) restraint; read-out: Inhibition, ED50 (cold restraint/stress ulcers)
Protocol: The procedures for these tests and the results for some of the compounds of the invention are presented at the end of the following examples, which will serve to illustrate the present invention. The ability of the compounds of the invention to exert a cytoprotective effect is examined in the cold restraint/stress ulcerogenesis assay. Male Charles River rats weighing between 120-160 gm are deprived of food for 18 hours with water ad libitum. The rats are divided into groups of ten and dosed by the oral route with test compound, 50 mg/kg, or vehicle control, 0.5% carboxymethylcellulose, in a volume of 5 ml/kg. Immediately after dosing, the animals are inserted into aluminum restraining tubes measuring 15/8 inches in diameter by 8 inches and placed in the cold (4±1° C.). […] At the end of the test period the animals are killed, the duodenum and esophagus ligated, and the stomach removed. The stomachs are inflated with water, opened along the lesser curvature, spread over the index finger, and the mucosa wiped off to expose the submucosa. The number of hemorrhage sites in the submucosa are counted by visual observation and recorded. Compounds are reported by determining (A) a percent inhibition which is calculated as follows: [formula] or (B) a mean ulcer number ±S.E.M. for each drug treated group and comparing it to that calculated for the control group. The test results for a compound of the invention and for the known (H^+ +K^+)ATPhase inhibitors omeprazole and timoprazole, expressed as ED50 's, are as follows: […]

[3] = system: spontaneous gastric secretions; assay: Pyloric-ligated rat assay (inhibition of gastric acid output); assay type: in vivo; conditions: male rats, intraduodenal, 4 hours after pylorus ligation
Protocol: The procedures for these tests and the results for some of the compounds of the invention are presented at the end of the following examples, which will serve to illustrate the present invention. […] Male Charles River SC/CD rats weighing 190-260 gm are fasted for 24 hours with access to tap water ad libitum until the test. Groups of 10 rats each are assigned to either control or drug treatment. Under […] anesthesia, a midline laparotomy is performed and a ligature is tightly secured around the pylorus. Either control vehicle (0.25% aqueous methylcellulose) or drug in control vehicle is administered intraduodenally, 1 ml/kg, immediately after ligating the pylorus. The abdominal incision is closed with wound clips and the rats (2 per cage) are allowed to recover from anesthesia. After four hours the rats are sacrificed by CO2 asphyxiation. Their stomachs are removed and the accumulated gastric contents are emptied into graduated tubes. The gastric samples are centrifuged for 10 minutes. Samples contaminated with food or fecal material are discarded. The volume of gastric juice is recorded and the acid concentration of 1.0 ml sample aliquots is measured by electrometric titration to pH 7.0 using 0.1N sodium hydroxide. Titratable acid output is calculated in microequivalents and the percent inhibition of acid output is calculated as follows: [formula] The test results for a compound of the invention and for the known (H^+ +K^+)ATPase inhibitors omeprazole and timoprazole, expressed as ED50 's, are as follows: […]

[4] = target: T2, H2-receptor (Cavia porcellus, UniProt P47747); assay: Histamine-induced positive chronotropic response in the spontaneously beating right atrium of the guinea pig heart (H2-receptor antagonism); conditions: at a level of 1×10^-6 M; 30 minutes after addition
T2 construct: from tissue; host or cells: Guinea pig right atrium, spontaneously beating
T2 sequence (P47747 whole entry): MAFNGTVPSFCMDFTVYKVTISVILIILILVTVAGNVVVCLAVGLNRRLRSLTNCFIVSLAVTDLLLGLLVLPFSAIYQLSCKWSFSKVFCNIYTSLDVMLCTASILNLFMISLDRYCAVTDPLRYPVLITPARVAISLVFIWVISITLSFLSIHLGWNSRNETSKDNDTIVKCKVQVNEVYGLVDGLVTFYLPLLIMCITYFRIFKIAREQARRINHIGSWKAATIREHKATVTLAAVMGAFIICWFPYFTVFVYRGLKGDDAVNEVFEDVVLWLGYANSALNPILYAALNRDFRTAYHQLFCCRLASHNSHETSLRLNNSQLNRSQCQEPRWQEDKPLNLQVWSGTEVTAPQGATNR
Protocol: The tissue is allowed to stabilize over 1 hour. Individual contractions are recorded with a force-displacement transducer through a strain gauge coupler. […] The test compound is added to the tissue bath at the desired final concentration. Thirty minutes after addition of the compound, a fresh histamine dose response curve is again obtained. Then the response to histamine in the presence of antagonist is compared to the histamine control response. This procedure is repeated, using fresh tissues, for each concentration of antagonist tested.

[5] = system: gastric secretions; conditions: cited from earlier work
[6] = system: (H^+ +K^+)ATPase; conditions: Fellenius, Nature 220, 159-160 (1981); cited from earlier work
[7] = system: isolated guinea pig gastric mucosa; conditions: dibutyryl cyclic AMP stimulation after pretreatment with theophylline; cited from earlier work

Structure (SMILES) | IC50 [1] [µM] | ED50 [2] [mg/kg] | ED50 [3] [mg/kg] | further results
O=S1(=O)N=C(N(CCCOc2cccc(CN3CCCCC3)c2)Cc2ccc3c(c2)OCO3)c2cscc21 [Example 3, N-(1,3-benzodioxol-5-ylmethyl)-N-[3-[3-(1-piperidinylmethyl)phenoxy]propyl]thieno[3,4-d]isothiazol-3-amine 1,1-dioxide, ethanedioate (1:1)] | 5 | – | – | –
O=S1(=O)N=C(N(CCCOc2cccc(CN3CCCCC3)c2)Cc2ccccc2)c2cscc21 [Example 1, N-(Phenylmethyl)-N-[3-[3-(1-piperidinylmethyl)phenoxy]propyl]thieno[3,4-d]isothiazol-3-amine 1,1-dioxide, ethanedioate (1:1)] | 0.4 | 6 | 8 | H2-receptor antagonist activity (guinea pig right atrium) [4]: inactive
CN/C(=N/CCSCc1nc[nH]c1C)NC#N [cimetidine] | – | – | – | inhibition of gastric secretions [5]: inhibit only those gastric secretions which were agonized by histamine; inhibition of proton transport by inhibition of (H^+ +K^+)ATPase [6]: devoid of this activity
O=S1(=O)N=C(N(CCCOc2cccc(CN3CCCCC3)c2)Cc2ccccc2)c2ccccc21 [Example 2, N-(Phenylmethyl)-N-[3-[3-(1-piperidinylmethyl)phenoxy]propyl]-1,2-benzoisothiazol-3-amine 1,1-dioxide, ethanedioate] | 0.1 | – | – | –
COc1ccc2[nH]c([S+]([O-])Cc3ncc(C)c(OC)c3C)nc2c1 (centres unmarked) [omeprazole] | 0.01 | 12 | 6 | inhibition of proton transport by inhibition of (H^+ +K^+)ATPase [6]: only omeprazole inhibited proton transport by the inhibition of (H^+ +K^+)ATPase; inhibition of stimulated secretion in isolated guinea pig gastric mucosa [7]: such stimulated secretion can be inhibited by omeprazole
[O-][S+](Cc1ccccn1)c1nc2ccccc2[nH]1 (centres unmarked) [timoprazole] | 1 | 8 | 4 | –
Nc1c(N(CCCOc2cccc(CN3CCCCC3)c2)Cc2ccc3c(c2)OCO3)c(=O)c1=O [Example 4] | 10 | – | – | –
